Results from US20060135568A1, “Methods of treating microbial infections in humans and animals” (priority 2002, published 2006).
Values after ≈ are worked out from the molar mass of the structure shown. “Also recorded” adds a separate entry of the source. Read-outs that look alike come from different tables or passages of the source.

Tests used:
[1] = test system: ATP level in BCG cultures; type: cell-based, M. bovis BCG; conditions: for ATP[M] levels, single time-point and time-course experiments: all time-points tested
[2] = test system: mycolic acid synthesis in BCG; type: cell-based, M. bovis BCG; conditions: BCG early log phase, 100 μg/ml, 10 minutes post exposure
[3] = test system: b-subunit and hsp homologs; assay: 2-dimensional protein profiles of OSA-treated M. smegmatis; type: cell-based
Description: Protein assays: mycobacteria and cultures. Either DMSO (diluent), OSA. (6.25 and 100 μg/ml), cerulenin (24 μg/ml) or isoniazid (1.0 μg/ml) were added to 20 ml control and treated cultures, respectively. Following additional incubation for 24 hours under the same conditions, 2 ml aliquots of cells were harvested by centrifugation (13,000× g for 30 seconds), the supernatant removed, and the process repeated once using 1×PBS. The cellular contents of each tube were divided into 2 to 3 Eppendorfs (roughly 3 to 5 OD units per tube), and 250 μl of a lysis solution containing 3M urea (Sigma), 0.5% Triton X-100 (Sigma), […] dithiothreitol (DTT) (Gibco BRL, Life Technologies, Gaithersburg, Md.) and […] Pharmalyte (Pharmacia Biotech, Piscataway, N.J.) was added. Subsequently, phenylmethylsulfonyl fluoride (PMSF) (Sigma) (100 μg/ml) and leupeptin (2 μg/ml) (Sigma) were also added. Mixtures containing cells and lysis solution were beadbeaten at maximum speed for 60 seconds in a Biospec Mini-8 beadbeater using 200-300 μm glass beads (Sigma). This process was repeated twice per sample with 30-second intervals on ice between agitations. […] Protein concentration was determined using a standardized colorimetric assay (Coomassie Plus, Pierce, Rockford, Ill.) and BSA standards (Pierce) in a Shimadzu UC-1201 spectrophotometer. Quantitated samples were aliquoted and frozen at −70° C. […]

[4] = test system: atpF (Rv1306) and hsp (Rv0251c); type: cell-based, M. bovis BCG; conditions: BCG treated overnight
M. tuberculosis H37Rv = assay: BACTEC radiometric growth procedure, activity in the presence of ethanol; type: cell-based, Mycobacterium tuberculosis (H37Rv); conditions: for potentiation of growth inhibition by ethanol: 0.05% ethanol, M. tuberculosis; for MIC: Mycobacterium tuberculosis, H37RV, M. tuberculosis H37Rv, BACTEC
BCG = assay: MIC in BCG; type: cell-based, M. bovis BCG; conditions: Mycobacterium tuberculosis variant bovis BCG
[5] = test system: mycolic acid synthesis in BCG; conditions: previously reported; cited from earlier work
M. smegmatis = conditions: concentrations up to 100 μg/ml; previously reported; cited from earlier work
[6] = cited from earlier work
[7] = 5 minutes post-exposure, 16× MIC or stated inhibitor concentration

O=C(CC(=O)C(F)(F)F)c1cccs1 [TTFA, thenoyltrifluoroaceton]
effect on ATP level versus untreated BCG [1, 7]: only a moderate decrease
decrease in total mycolic acid levels compared to untreated controls [2]: 46%

CO[C@H]1/C=C/O[C@@]2(C)Oc3c(C)c(O)c4c(O)c(c(/C=N/N5CCN(C)CC5)c(O)c4c3C2=O)NC(=O)/C(C)=C\C=C\[C@H](C)[C@H](O)[C@@H](C)[C@@H](O)[C@@H](C)[C@H](OC(C)=O)[C@@H]1C [RIF, rifampin]
effect on ATP level versus untreated BCG [1, 7]: no appreciable difference

CCCCCCCCS(=O)(=O)CC(N)=O [OSA, n-octanesulfonylacetamide]
overexpression of hsp and b-subunit homologs [3]: no proteins consistent with these molecular weights or pI's were overexpressed; also recorded: neither protein was overexpressed
level of hsp expression by RT-PCR [4]: marked increase
effect on ATP level versus untreated BCG [1, 7]: significantly decreased
reduction in ATP[M] versus untreated controls ([1]; BCG, 100 μg/ml, 24 hours): 85%
decrease in ATP[M] level versus untreated controls ([1]; BCG, 100 μg/ml, one hour post exposure): 46%
reduction in ATP[M] versus untreated controls ([1]; BCG, 100 μg/ml, three hours): 54%
ATP[M] levels, single time-point and time-course experiments ([1]; BCG): decreased significantly
potentiation of growth inhibition by ethanol (M. tuberculosis H37Rv): potentiated
MIC (M. tuberculosis H37Rv; with 0.05% ethanol): < 1.5 µg/mL
MIC (M. tuberculosis H37Rv; without ethanol, read-out: MIC): 6.25 µg/mL
decrease in total mycolic acid levels compared to untreated controls [2]: 43%
MIC (BCG): 6.25 µg/mL (≈ 26.6 µM)
mycolic acid levels in BCG [5]: decreased
susceptibility of M. smegmatis (M. smegmatis): intrinsically resistant
limit of solubility [6]: 100 µg/mL

C/C=C/C/C=C/CCC(=O)[C@H]1O[C@H]1C(N)=O [cerulenin]
effect on ATP level versus untreated BCG [1, 7]: No appreciable decrease

NNC(=O)c1ccncc1 [INH, isoniazid]
effect on ATP level versus untreated BCG [1, 7]: no appreciable difference

C=C(C)[C@H]1Cc2c(ccc3c2O[C@@H]2COc4cc(OC)c(OC)cc4[C@@H]2C3=O)O1 [rotenone]
effect on ATP level versus untreated BCG [1]: No appreciable decrease

C(=NC1CCCCC1)=NC1CCCCC1 [DCCD, dicyclohexylcarbodiimide]
effect on ATP level versus untreated BCG [1, 7]: statistically significant decrease
decrease in ATP[M] level ([1]; BCG, 100 μg/ml, all timepoints (1, 3, 24 hours)): 95%
ATP[M] levels, single time-point and time-course experiments ([1]; BCG): decreased significantly
decrease in total mycolic acid levels compared to untreated controls [2]: 79%

O=c1oc2ccccc2c(O)c1Cc1c(O)c2ccccc2oc1=O [dicumarol]
effect on ATP level versus untreated BCG [1, 7]: No appreciable decrease

[H]/N=C(/N)N[C@H]1[C@H](O)[C@@H](O)[C@H](O[C@@H]2O[C@@H](C)[C@](O)(C=O)[C@H]2O[C@@H]2O[C@@H](CO)[C@H](O)[C@@H](O)[C@@H]2NC)[C@@H](N/C(N)=N\[H])[C@@H]1O [STR, streptomycin]
effect on ATP level versus untreated BCG [1, 7]: no appreciable difference
potentiation of growth inhibition by ethanol (M. tuberculosis H37Rv): No potentiation

CC[C@@H](CO)NCCN[C@@H](CC)CO [EMB, ethambutol]
effect on ATP level versus untreated BCG [1, 7]: no appreciable difference
